Ends that are not written are not given here.
Assay: Vx006 solubilisation in solvents for injection
Type: physicochemical
Conditions: in water for injection
Description: For vaccinating a patient, 1 ml of solvent is added on the lyocake to resuspend the peptide, 0.7 ml of peptide in solution is then loaded in a silicone free syringe and 0.7 ml of MONTANIDE ISA51VG in a second syringe. Both syringes are then connected to the I-connector for the emulsification protocol.
According to SEPPIC recommendations, to the fact that the emulsion is performed for human administration (preventing the use of solvents as DMSO etc.), results presented in Example 1 above and solubility prediction, Vx006 was initially diluted in saline buffer. Two saline solvents were tested, NaCl 0.9% and PBS. […] Moreover, the addition of several solvents developed by Seppic and compatible with injection in humans and emulsion with MONTANIDE were tested during the Vx006 manufacturing development.
The vial can be gently agitated to accelerate the dissolution, if necessary. The dissolution can also be performed at cold temperature (0-10° C.).

YLQVNSLQTVYLEYRQVPVYLEEITGYL [Vx006]
Solubility: perfectly soluble
pH of the solubilised peptide: around 7

Reference: patent US20170000866A1, “METHOD FOR EMULSIFYING A TRIEPITOPE PEPTIDE WITH MONTANIDE AND KITS FOR PERFORMING THE SAME” (VAXON BIOTECH, priority 2013, published 2017)
